Reference: PMC4901312, “Ecological factors drive natural selection pressure of avian aryl hydrocarbon receptor 1 genotypes” (Scientific Reports, 2016)

How the values were obtained:
Experiment in all cases: luciferase reporter gene transactivation assay (ckCYP1A5 promoter) in transfected COS-7 cells; LOEC
Format in all cases: cell-based
[1] = biological target: T1, chicken AHR1 (ckAHR1) (Gallus gallus, UniProt Q9I9E2)
T1 construct: full-length cDNA in pcDNA3.1 zeo (+), expressed in COS-7 cells; with chicken ARNT1 (ckARNT1)
T1 sequence (Q9I9E2 1-858): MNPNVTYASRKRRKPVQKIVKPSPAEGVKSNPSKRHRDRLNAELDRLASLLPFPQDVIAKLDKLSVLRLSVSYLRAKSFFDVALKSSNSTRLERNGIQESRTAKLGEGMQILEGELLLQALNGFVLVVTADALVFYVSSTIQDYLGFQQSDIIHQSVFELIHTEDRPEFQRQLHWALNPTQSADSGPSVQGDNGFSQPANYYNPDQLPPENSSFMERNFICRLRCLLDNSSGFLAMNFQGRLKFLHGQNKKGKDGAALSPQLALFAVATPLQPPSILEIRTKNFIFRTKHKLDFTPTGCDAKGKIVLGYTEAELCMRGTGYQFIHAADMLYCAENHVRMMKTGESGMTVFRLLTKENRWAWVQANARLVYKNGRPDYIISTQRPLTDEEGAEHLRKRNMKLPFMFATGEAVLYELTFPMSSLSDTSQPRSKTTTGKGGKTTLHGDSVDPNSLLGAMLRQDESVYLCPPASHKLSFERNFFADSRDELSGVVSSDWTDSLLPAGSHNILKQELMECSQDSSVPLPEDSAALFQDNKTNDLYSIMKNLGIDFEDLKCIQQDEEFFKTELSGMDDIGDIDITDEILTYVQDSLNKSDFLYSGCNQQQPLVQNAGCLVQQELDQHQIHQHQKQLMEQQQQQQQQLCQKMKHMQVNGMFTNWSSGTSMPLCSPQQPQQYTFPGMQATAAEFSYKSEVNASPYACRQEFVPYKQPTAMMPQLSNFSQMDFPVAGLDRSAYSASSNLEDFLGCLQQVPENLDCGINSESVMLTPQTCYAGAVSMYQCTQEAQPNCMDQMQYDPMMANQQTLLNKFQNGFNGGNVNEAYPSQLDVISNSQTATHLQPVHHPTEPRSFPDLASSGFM

[2] = biological target: T2, black-footed albatross AHR1 (bfaAHR1) (Phoebastria nigripes, UniProt Q76EQ7)
T2 construct: full-length cDNA in pcDNA3.1 zeo (+), expressed in COS-7 cells; with chicken ARNT1 (ckARNT1)
T2 sequence (Q76EQ7 1-861): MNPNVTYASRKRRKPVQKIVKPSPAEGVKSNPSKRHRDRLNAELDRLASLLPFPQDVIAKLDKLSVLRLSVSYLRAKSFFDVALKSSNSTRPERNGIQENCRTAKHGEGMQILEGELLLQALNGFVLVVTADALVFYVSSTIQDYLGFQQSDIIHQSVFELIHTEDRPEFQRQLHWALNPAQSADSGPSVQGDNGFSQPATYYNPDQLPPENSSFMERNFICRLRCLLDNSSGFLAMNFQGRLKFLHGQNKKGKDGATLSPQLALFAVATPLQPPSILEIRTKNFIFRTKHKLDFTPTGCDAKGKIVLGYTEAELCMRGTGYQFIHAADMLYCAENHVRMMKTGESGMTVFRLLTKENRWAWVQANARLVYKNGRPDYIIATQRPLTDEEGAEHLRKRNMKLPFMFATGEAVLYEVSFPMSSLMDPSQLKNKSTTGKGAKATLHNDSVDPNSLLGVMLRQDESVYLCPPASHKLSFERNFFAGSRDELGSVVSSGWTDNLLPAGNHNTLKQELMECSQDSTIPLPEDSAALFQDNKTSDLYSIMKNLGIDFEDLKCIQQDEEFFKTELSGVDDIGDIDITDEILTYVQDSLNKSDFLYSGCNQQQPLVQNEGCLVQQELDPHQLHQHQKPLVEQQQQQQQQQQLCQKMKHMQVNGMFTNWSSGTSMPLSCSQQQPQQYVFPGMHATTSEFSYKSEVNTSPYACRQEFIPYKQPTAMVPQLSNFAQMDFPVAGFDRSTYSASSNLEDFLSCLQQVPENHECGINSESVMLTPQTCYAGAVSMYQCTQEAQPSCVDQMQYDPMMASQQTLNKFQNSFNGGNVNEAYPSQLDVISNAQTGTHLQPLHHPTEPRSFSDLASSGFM

[3] = biological target: T3, common cormorant AHR1 (ccAHR1) (Phalacrocorax carbo, UniProt Q76CM2)
T3 construct: gene AHR 1; full-length cDNA in pcDNA3.1 zeo (+), expressed in COS-7 cells; with chicken ARNT1 (ckARNT1)
T3 sequence (Q76CM2 1-860): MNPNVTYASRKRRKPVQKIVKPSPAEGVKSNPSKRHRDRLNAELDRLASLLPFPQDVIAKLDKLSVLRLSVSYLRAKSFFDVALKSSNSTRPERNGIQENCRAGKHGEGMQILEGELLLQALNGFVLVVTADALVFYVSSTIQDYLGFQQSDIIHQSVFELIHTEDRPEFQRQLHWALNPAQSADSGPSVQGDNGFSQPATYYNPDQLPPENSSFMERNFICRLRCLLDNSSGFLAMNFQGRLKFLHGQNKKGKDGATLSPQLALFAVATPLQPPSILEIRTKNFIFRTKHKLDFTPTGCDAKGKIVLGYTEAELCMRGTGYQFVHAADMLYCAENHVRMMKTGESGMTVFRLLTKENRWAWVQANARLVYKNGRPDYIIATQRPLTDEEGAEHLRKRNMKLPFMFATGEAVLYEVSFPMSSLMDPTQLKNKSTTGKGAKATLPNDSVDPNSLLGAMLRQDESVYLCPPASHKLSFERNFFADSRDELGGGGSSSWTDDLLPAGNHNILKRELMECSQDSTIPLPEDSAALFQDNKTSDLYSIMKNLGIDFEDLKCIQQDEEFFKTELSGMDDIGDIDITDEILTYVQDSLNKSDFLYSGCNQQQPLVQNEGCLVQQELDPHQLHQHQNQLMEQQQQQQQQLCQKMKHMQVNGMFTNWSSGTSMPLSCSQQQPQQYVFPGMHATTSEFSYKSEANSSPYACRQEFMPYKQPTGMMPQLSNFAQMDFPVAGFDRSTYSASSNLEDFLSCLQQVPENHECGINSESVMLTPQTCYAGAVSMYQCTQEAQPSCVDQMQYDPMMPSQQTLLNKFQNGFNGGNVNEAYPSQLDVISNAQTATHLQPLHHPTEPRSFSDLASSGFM

Brc1ccc2c(c1)Oc1cc(Br)cc(Br)c1O2 [1,3,7-TriBDD, 1,3,7-tribromodibenzo-p-dioxin]
luciferase reporter gene transactivation assay (ckCYP1A5 promoter) in transfecte [1]: 1.2 nM
luciferase reporter gene transactivation assay (ckCYP1A5 promoter) in transfecte [2]: 12 nM
luciferase reporter gene transactivation assay (ckCYP1A5 promoter) in transfecte [3]: 120 nM
